Reference: article PMC11672299, “Conjugation of Polycationic Peptides Extends the Efficacy Spectrum of β‐Lactam Antibiotics” (Advanced Science, 2024)
Like-named read-outs stand apart in the source and are kept apart here. Blank lines part the entries; values can stand above or below the compound they belong to. Square brackets hold non-standard residues; d marks the D form. Peptide text beside a SMILES is read from it. * marks the point of attachment. X1 = CC(C)(O/N=C(\C(=O)N[C@@H]1C(=O)N2C(C(=O)[O-])=C(C[n+]3ccccc3)CS[C@H]12)c1csc(N)n1)C(=O)NCCCCCCN1C(=O)CC(*)C1=O; X2 = C[C@H]1[C@H](NC(=O)/C(=N\OC(C)(C)C(=O)NCCCCCCN2C(=O)CC(*)C2=O)c2csc(N)n2)C(=O)N1S(=O)(=O)O

Columns and labels:
Scintigraphy in mice = format: in vivo, Swiss mice
Procedure: To enable radiolabeling of the β‐lactam–peptide conjugates, their peptide sequence was elongated by an N‐terminal D‐tyrosine. […] The solution was mixed with 5 MBq of iodine‐125 and radiolabeling was performed using the chloramine T method as previously described.^[ [35] ^] After 30 s, the reaction was quenched by the addition of a saturated methionine solution and the radiolabeled compound purified by reversed‐phase preparative radio‐HPLC (1100 series, Agilent Technologies, Santa Clara, CA, USA). Analysis was performed by analytical radio‐HPLC (1100 series, Agilent Technologies, Santa Clara, CA, USA) using a linear gradient from water (+ 0.1% TFA) to acetonitrile (+ 0.1% TFA) over 5 min at a flow rate of 2 mL min^−1.
All animal studies were approved by the Animal Care and Use committees from Regierungspräsidium Karlsruhe (Karlsruhe, Germany; reference number 35–9185.81/G‐199/21; date of approval: November 23, 2021). To obtain scintigraphic images, 1–3 MBq of the respective ^125I‐radiolabeled β‐lactam–peptide conjugate was intravenously injected into the tail vein of isoflurane anaesthetized female Wistar rats or Swiss mice. Scintigraphic images were taken with a γ‐camera (Biospace Lab, Nesles‐la‐Vallée, France) at 10 min, 1, 2, 3, and 24 h after injection of the compounds.

[1] = test system: K. pneumoniae BL809453 (KPC); assay: microbe, parasite or virus in culture; format: cell-based; conditions: Klebsiella pneumoniae, 20 h, combinations: avibactam fixed 4 mg L^−1, clavulanic acid 2 mg L^−1, median (n = 3)
Procedure: (§1) The minimum inhibitory concentration (MIC) of the β‐lactam–peptide conjugates was determined by broth microdilution as previously described.^[ [17] ^] Briefly, in cation‐adjusted MHB II medium, a twofold serial dilution of the compounds was prepared in 96‐well round‐bottom polystyrene or polypropylene microtiter plates with each well containing 50 µL. The plates were inoculated with 50 µL bacterial suspension and the final inoculum, in a total volume of 100 µL, contained 5 × 10^5 CFU mL^−1. The microplates were incubated for 20 h at 37 ± 1 °C. The lowest concentration preventing visible bacterial growth was considered the MIC value. For susceptibility testing of combinations of β‐lactamase‐inhibitors with either a β‐lactam antibiotic or a β‐lactam–peptide conjugate, fixed concentrations of the inhibitors according to the EUCAST (European Committee on Antimicrobial Susceptibility Testing) guidelines (clavulanic acid = 2 mg L^−1, avibactam = 4 mg L^−1) were used.

[2] = test system: K. pneumoniae 0 6841/Nr.45 (Oxa48); assay: microbe, parasite or virus in culture; format: cell-based; conditions: Klebsiella pneumoniae, 20 h; K. pneumoniae 06841/Nr.45 (Oxa48); combinations: avibactam fixed 4 mg L^−1, clavulanic acid 2 mg L^−1; median (n = 3)
Procedure: as §1

E. coli ATCC 25 922 (–) = assay: microbe, parasite or virus in culture; format: cell-based; conditions: Escherichia coli, 20 h; E. coli ATCC 25922 (no β‐lactamase); combinations: avibactam fixed 4 mg L^−1, clavulanic acid 2 mg L^−1; median (n = 3)
Procedure: as §1

[3] = test system: K. pneumoniae ATCC 700 603 (SHV‐18); assay: microbe, parasite or virus in culture; format: cell-based; conditions: Klebsiella pneumoniae, 20 h; K. pneumoniae ATCC 700603 (SHV‐18); combinations: avibactam fixed 4 mg L^−1, clavulanic acid 2 mg L^−1; median (n = 3)
Procedure: as §1

[4] = test system: A. baumannii SC300007 (Oxa23); assay: microbe, parasite or virus in culture; format: cell-based; conditions: Acinetobacter baumannii, 20 h, combinations: avibactam fixed 4 mg L^−1, clavulanic acid 2 mg L^−1, median (n = 3)
Procedure: as §1

B. subtilis DSM 10 = assay: microbe, parasite or virus in culture; format: cell-based
Procedure: as §1

[5] = test system: E. casseliflavus ATCC 700327; assay: microbe, parasite or virus in culture; format: cell-based; conditions: E. casseliflavus ATCC 700327, median (n = 3)
Procedure: as §1

E. faecalis ATCC 29212 = assay: microbe, parasite or virus in culture; format: cell-based; conditions: E. faecalis ATCC 29212, median (n = 3)
Procedure: as §1

[6] = Swiss mice, i.v., ^125I‐labelled, scintigraphy
[7] = Bacillus subtilis, DSM10, B. subtilis DSM 10, median (n = 3), read-out: MIC

Structure (SMILES): CC(C)(O/N=C(\C(=O)N[C@@H]1C(=O)N2C(C(=O)[O-])=C(C[n+]3ccccc3)CS[C@H]12)c1csc(N)n1)C(=O)NCCCCCCN1C(=O)CC(SC[C@H](NC(=O)[C@H](CCCNC(=N)N)NC(=O)[C@H](CCCNC(=N)N)NC(=O)[C@H](CCCNC(=N)N)NC(=O)[C@H](CCCNC(=N)N)NC(=O)[C@H](CCCNC(=N)N)NC(=O)[C@H](CCCNC(=N)N)NC(=O)[C@H](N)Cc2ccc(O)cc2)C(N)=O)C1=O (some centres unmarked) [CTZ-yR6] (H-[dY]RRRRRRC(X1)-NH2; N-terminus assumed)
elimination route / biodistribution (Scintigraphy in mice; [6]): mainly accumulated in the liver

MIC [1]: > 64 µg/mL
MIC [2]: > 64 µg/mL
MIC (E. coli ATCC 25 922 (–)): 16 µg/mL
MIC [3]: > 64 µg/mL
MIC [4]: > 64 µg/mL
Structure (SMILES): NC(=O)[C@@H]1CC[C@@H]2CN1C(=O)N2OS(=O)(=O)O [AVI, avibactam]

Structure (SMILES): O=C(O)[C@H]1/C(=C/CO)O[C@@H]2CC(=O)N21 [CLV, clavulanic acid]
MIC [1]: > 64 µg/mL
MIC [2]: > 64 µg/mL
MIC (E. coli ATCC 25 922 (–)): 32 µg/mL
MIC [3]: 64 µg/mL
MIC [4]: > 64 µg/mL

Structure (SMILES): C[C@H]1[C@H](NC(=O)/C(=N\OC(C)(C)C(=O)O)c2csc(N)n2)C(=O)N1S(=O)(=O)O [AZT, aztreonam]
MIC (B. subtilis DSM 10; Bacillus subtilis, DSM10): 512 µg/mL
MIC (E. coli ATCC 25 922 (–)): 0.06 µg/mL
MIC [4]: 64 µg/mL

Structure (SMILES): CC(C)(O/N=C(\C(=O)N[C@@H]1C(=O)N2C(C(=O)[O-])=C(C[n+]3ccccc3)CS[C@H]12)c1csc(N)n1)C(=O)NCCCCCCN1C(=O)CC(SC[C@H](NC(=O)[C@H](CCCCN)NC(=O)[C@H](CCCCN)NC(=O)[C@H](CCCCN)NC(=O)[C@H](CCCCN)NC(=O)[C@H](CCCCN)NC(=O)[C@H](CCCCN)NC(=O)[C@H](N)Cc2ccc(O)cc2)C(N)=O)C1=O (some centres unmarked) [CTZ-yK6] (H-[dY]KKKKKKC(X1)-NH2; N-terminus assumed)
elimination route / biodistribution (Scintigraphy in mice; [6]): eliminated by the kidneys

MIC (B. subtilis DSM 10; DSM 10, 20 h): 16 µg/mL
Structure (SMILES): C[C@H]1[C@H](NC(=O)/C(=N\OC(C)(C)C(=O)NCCCCCCN2C(=O)CC(SC[C@H](NC(=O)[C@@H](N)CCCNC(=N)N)C(N)=O)C2=O)c2csc(N)n2)C(=O)N1S(=O)(=O)O (some centres unmarked) [AZT-R1]

Structure (SMILES): CC(C)(O/N=C(\C(=O)N[C@@H]1C(=O)N2C(C(=O)[O-])=C(C[n+]3ccccc3)CS[C@H]12)c1csc(N)n1)C(=O)NCCCCCCN1C(=O)CC(SC[C@H](NC(=O)[C@H](CCCNC(=N)N)NC(=O)[C@H](CCCCN)NC(=O)[C@H](CCCNC(=N)N)NC(=O)[C@H](CCCCN)NC(=O)[C@H](CCCNC(=N)N)NC(=O)[C@@H](N)CCCCN)C(N)=O)C1=O (some centres unmarked) [CTZ-(KR)3] (H-KRKRKRC(X1)-NH2; N-terminus assumed)
MIC (B. subtilis DSM 10; DSM 10, 20 h): 0.008 µg/mL

Structure (SMILES): CC(C)(O/N=C(\C(=O)N[C@@H]1C(=O)N2C(C(=O)[O-])=C(C[n+]3ccccc3)CS[C@H]12)c1csc(N)n1)C(=O)NCCCCCCN1C(=O)CC(SC[C@H](NC(=O)[C@H](CCCNC(=N)N)NC(=O)CNC(=O)[C@H](CCCNC(=N)N)NC(=O)CNC(=O)[C@H](CCCNC(=N)N)NC(=O)CN)C(N)=O)C1=O (some centres unmarked) [CTZ-(GR)3] (H-GRGRGRC(X1)-NH2; N-terminus assumed)
MIC (B. subtilis DSM 10; DSM 10, 20 h): 0.06 µg/mL

Structure (SMILES): CC(C)(O/N=C(\C(=O)N[C@@H]1C(=O)N2C(C(=O)[O-])=C(C[n+]3ccccc3)CS[C@H]12)c1csc(N)n1)C(=O)NCCCCCCN1C(=O)CC(SC[C@H](NC(=O)[C@H](CCCCN)NC(=O)[C@H](CCCCN)NC(=O)[C@H](CCCCN)NC(=O)[C@H](CCCCN)NC(=O)[C@H](CCCCN)NC(=O)[C@@H](N)CCCCN)C(N)=O)C1=O (some centres unmarked) [CTZ-K6] (H-KKKKKKC(X1)-NH2; N-terminus assumed)
MIC (B. subtilis DSM 10; DSM 10, 20 h): 0.02 µg/mL
elimination route / biodistribution (Scintigraphy in mice; mouse, in vivo, iv): renal elimination

MIC (B. subtilis DSM 10; DSM 10, 20 h): 1 µg/mL
Structure (SMILES): CC(C)(O/N=C(\C(=O)N[C@@H]1C(=O)N2C(C(=O)[O-])=C(C[n+]3ccccc3)CS[C@H]12)c1csc(N)n1)C(=O)NCCCCCCN1C(=O)CC(SC[C@H](NC(=O)[C@@H](N)CCCNC(=N)N)C(N)=O)C1=O (some centres unmarked) [CTZ-R1]

MIC [1]: > 64 µg/mL
MIC [2]: > 64 µg/mL
MIC (B. subtilis DSM 10; [7]): 0.1 µg/mL
MIC (E. coli ATCC 25 922 (–)): 6 µg/mL
MIC [3]: > 64 µg/mL
MIC [4]: > 64 µg/mL
Structure (SMILES): CC1(C)S[C@@H]2[C@H](NC(=O)[C@H](N)c3ccc(O)cc3)C(=O)N2[C@H]1C(=O)O [AMO, amoxicillin]

MIC [5]: > 64 µg/mL
MIC (E. faecalis ATCC 29212): > 64 µg/mL
MIC (B. subtilis DSM 10; B. subtilis DSM 10, median (n = 3)): > 64 µg/mL
Structure (SMILES): NC(=O)CCCCCN1C(=O)C=CC1=O [BB linker, 6‐maleinimidohexanamide linker]

MIC (B. subtilis DSM 10; DSM 10, 20 h): 8 µg/mL
Structure (SMILES): C[C@H]1[C@H](NC(=O)/C(=N\OC(C)(C)C(=O)NCCCCCCN2C(=O)CC(SC[C@H](NC(=O)[C@H](CCCCN)NC(=O)[C@H](CCCCN)NC(=O)[C@@H](N)CCCCN)C(N)=O)C2=O)c2csc(N)n2)C(=O)N1S(=O)(=O)O (some centres unmarked) [AZT-K3]

Structure (SMILES): C[C@H]1[C@H](NC(=O)/C(=N\OC(C)(C)C(=O)NCCCCCCN2C(=O)CC(SC[C@H](NC(=O)[C@H](CCCNC(=N)N)NC(=O)CNC(=O)[C@H](CCCNC(=N)N)NC(=O)CNC(=O)[C@H](CCCNC(=N)N)NC(=O)CN)C(N)=O)C2=O)c2csc(N)n2)C(=O)N1S(=O)(=O)O (some centres unmarked) [AZT-(GR)3] (H-GRGRGRC(X2)-NH2; N-terminus assumed)
MIC (B. subtilis DSM 10; DSM 10, 20 h): 1 µg/mL

Structure (SMILES): C[C@H]1[C@H](NC(=O)/C(=N\OC(C)(C)C(=O)NCCCCCCN2C(=O)CC(SC[C@H](NC(=O)CNC(=O)CNC(=O)CNC(=O)CNC(=O)CNC(=O)CN)C(N)=O)C2=O)c2csc(N)n2)C(=O)N1S(=O)(=O)O (some centres unmarked) [AZT-G6] (H-GGGGGGC(X2)-NH2; N-terminus assumed)
MIC (B. subtilis DSM 10; DSM 10, 20 h): 64 µg/mL

MIC ([5]; Enterococcus casseliflavus, ATCC700327, read-out: MIC): > 64 µg/mL
MIC (E. faecalis ATCC 29212; Enterococcus faecalis, ATCC29212, read-out: MIC): 1 µg/mL
MIC (B. subtilis DSM 10; [7]): 24 µg/mL
Structure (SMILES): CC(C)(O/N=C(\C(=O)N[C@@H]1C(=O)N2C(C(=O)O)=C(C[n+]3ccccc3)CS[C@H]12)c1csc(N)n1)C(=O)NCCCCCCN1C(=O)C=CC1=O [CTZ–BB linker]

Structure (SMILES): CC(C)(O/N=C(\C(=O)N[C@@H]1C(=O)N2C(C(=O)[O-])=C(C[n+]3ccccc3)CS[C@H]12)c1csc(N)n1)C(=O)NCCCCCCN1C(=O)CC(SC[C@H](NC(=O)[C@H](CCCCN)NC(=O)[C@H](CCCCN)NC(=O)[C@H](CCCCN)NC(=O)[C@H](CCCCN)NC(=O)[C@H](CCCCN)NC(=O)[C@H](CCCCN)NC(=O)[C@H](CCCCN)NC(=O)[C@H](CCCCN)NC(=O)[C@H](CCCCN)NC(=O)[C@H](CCCCN)NC(=O)[C@H](CCCCN)NC(=O)[C@@H](N)CCCCN)C(N)=O)C1=O (some centres unmarked) [CTZ-K12] (H-KKKKKKKKKKKKC(X1)-NH2)
MIC (B. subtilis DSM 10; DSM 10, 20 h): 0.02 µg/mL

MIC (B. subtilis DSM 10; [7]): 0.5 µg/mL
Structure (SMILES): C[C@@H](O)[C@H]1C(=O)N2C(C(=O)O)=C(S[C@@H]3CN[C@H](C(=O)Nc4cccc(C(=O)O)c4)C3)[C@H](C)[C@H]12 [ERT, ertapenem, reference compound]
